Experimental data: US10849906B2, “Use of Akt2 in diagnosis and treatment of tumor” (priority 2015, dated 2020)
Values belong to the molecule of their own block, whether it stands above or below them.

Legend:
[1] = system: Akt/FoxO3a/Bim signaling pathway in CCRF-CEM cells; assay: Western blot of Akt/FoxO3a/Bim signaling pathway proteins in CCRF-CEM cells; type: cell-based, human; conditions: compared to the only dexamethasone group; FIG. 2B, 2H, 2I
Method: (§1) The control group was not added with any reagents. All experiments were performed in triplicate.
Protein detection by Western blot: in the examples of the present invention, Akt antibody (rabbit derived), phosphorylated Akt antibody (rabbit derived), FoxO3a antibody (rabbit derived), phosphorylated FoxO3a antibody (rabbit derived) and GAPDH antibody (rabbit derived) and secondary antibodies were all purchased from CST company. The cells were collected in a centrifuge tube and centrifuged at 1000 rpm, the supernatant was discarded and the cells were washed twice with PBS pre-cold at 4° C.; cell lysis buffer (150 mM NaCl, 1% NP-40, 0.1% SDS, 2 μg/ml Aprotinin, 2 μg/ml Leupeptin, 1 mM PMSF, 1.5 mM EDTA, 1 mM sodium vanadate) was added and the cells were lysed on ice for 40 minutes, the cell lysate was centrifuged at 20000 rpm, 4° C. for 15 minutes, and the supernatant was collected; a protein loading buffer for sodium dodecyl sulfate polyacrylamide (SDS-PAGE) gel electrophoresis (1.25 mL 1MTris-HCl (pH6.8), 0.5 g SDS, 25 mg BPB, 2.5 mL glycerol, 5 mL deionized water) was added, followed by boiling for 5 minutes to denature proteins; the loading buffer containing denatured proteins was applied to 10% SDS-PAGE for electrophoresis at 120 V, and then transferred to a PVDF membrane (Sangon Biotech (Shanghai) Co., Ltd.) at 130 V for 1.5 hours; after the membrane transfer was completed, the PVDF membrane was immediately rinsed with a Western washing solution (150 mmol/L NaCl, 50 mmol/L Tris-HCl (pH 7.5)) for 1-2 minutes; added with 5% non-fat milk powder (Shanghai Biotechnology Co., Ltd.), agitated gently and then blocked at room temperature for 60 minutes; a primary antibody diluted appropriately with 5% non-fat milk powder was added, and incubated overnight at room temperature with gentle agitating; the primary antibody was recovered and the membrane was washed three times with the washing solution for 5-10 minutes each; a horseradish peroxidase-labeled secondary antibody diluted appropriately with the Western washing solution was added, and incubated at room temperature for 1 hour with gentle agitating; the secondary antibody was recovered and the membrane was washed three times with the Western washing solution for 5-10 minutes each. An appropriate amount of developing solution (DAB 4 mg, 30% hydrogen peroxide 15 μL, 0.01 M Tris-Cl (pH 7.5) 5 mL) was dropped on the PVDF membrane, the image was detected using a bioluminescence image colorimeter and a gel imaging system (Thermo company), and the quantitative analysis of bands was performed using Image Lab software.
(§2) The cells were cultured in RPMI 1640 complete medium (Gibco company) containing 10% fetal bovine serum (FBS, Gibco company) in an incubator (Thermo company) at 5% CO2 and 37° C. until reaching logarithmic growth phase, then different concentrations of inhibitors and/or dexamethasone/ethanol/DMSO were added to the culture medium, followed by further culturing (for addition of dexamethasone/ethanol/DMSO, for 48 hours, and for addition of inhibitor, for 24 hours), and apoptosis was detected by Annexin V-FITC PI double staining and proteins were detected by Western blot, as described in Example 1.
Methods: CCRF-CEM cells were cultured in RPMI 1640 complete medium (Gibco company) containing 10% fetal bovine serum (FBS, Gibco company) in an incubator (Thermo company) at 5% CO2 and 37° C. until reaching logarithmic growth phase, then DMSO, dexamethasone and different inhibitors (DMSO: 0.1%, dexamethasone: 0.1 μM, inhibitors: 0.8 μM) were added to the culture medium, and further cultured (for addition of dexamethasone or DMSO, for 48 hours, and for addition of inhibitors, for 24 hours), and the proteins were detected by Western blot, as described in Example 1.

CCRF-CEM cells [2] = assay: Apoptosis by Annexin V-FITC PI double staining (flow cytometry), CCRF-CEM; type: cell-based, human; conditions: compared to dexamethasone alone; FIG. 2A: Akt inhibitor 1 μM, dexamethasone 1 μM, LY294002 30 μM; FIG. 2G, 2J, 2K
Method: as §1
(§3) Apoptosis was detected by Annexin V-FITC PI double staining method (flow cytometry kit (FITC, PI double staining), Sangon Biotech (Shanghai) Co., Ltd.)), and the collected cells were washed once with phosphate buffered saline (PBS) (135 mM NaCl, 2.7 mM KCl, 1.5 mM KH2PO4 and 8 mM K2HPO4, pH 7.2); the 4× binding buffer was diluted to a 1× binding buffer with deionized water, then the cells were resuspended with 195 ul of the 1× binding buffer at a cell density of 2-5×10^5/ml; 5 μl of Annexin V-FITC was added to the 195 μl of the cell resuspension and mixed, and incubated in dark at room temperature for 10 minutes; the cells were washed once with 200 μl of the 1× binding buffer, and then resuspended in 190 μl of the 1× binding buffer; 10 μl of propidium iodide (20 μg/ml) was added. A flow cytometry device (Beckman company) was used for detection, and the rate of apoptosis was analyzed using Summit software.
as §2
(§4) As described in Example 3, the cells were cultured in RPMI 1640 complete medium containing 10% fetal bovine serum under 5% CO2 and 37° C. until reaching logarithmic growth phase, and then dexamethasone and different concentrations of Akt inhibitor were added to the culture medium, followed by further culture (for addition of dexamethasone/DMSO, for 48 hours, and for addition of the inhibitor, for 24 hours), the apoptosis was detected by Annexin V-FITC PI double staining method and proteins were detected by Western blot as described in Example 1 as well as the cell viability was detected by CCK-8 method.

Jurkat cells [3] = assay: Cell viability by CCK-8 and combination index, Jurkat; type: cell-based; conditions: Homo sapiens, dexamethasone alone (original), read-out: concentration of dexamethasone at which 50% viability of Jurkat cells (IC50 value) was inhibited
Method: as §4
(§5) The inhibitory effect of two drugs (dexamethasone and an inhibitor) alone and in combination on various lymphocyte lines was observed by CCK-8 method (CCK-8 kit), and then the half-inhibitory concentration of each drug was calculated using the median effect equation, and the combination index (CI) of the two drugs used in combination was calculated using CompuSyn software. […]
(§6) (3) 10 μl of CCK-8 was added to each well, and cultured for 2 hours, and the optical density (OD) was measured at 450 nm using an automatic microplate reader, and the proliferation inhibition rate of the drug on cell was calculated. […]

[4] = system: L-02 human-derived healthy liver cell line; assay: CCK-8 viability of healthy liver cells L-02; conditions: DEX 0.1 μM, inhibitors 0.8 μM, FIG. 6A
CEM-DR cells = assay: Cell viability by CCK-8 and combination index, CEM-DR; type: cell-based; conditions: Homo sapiens; dexamethasone alone (original); read-out: concentration of dexamethasone at which 50% viability of CEM-DR cells (IC50 value) was inhibited
Method: as §4, §5, §6

CCRF-CEM cells [5] = assay: Cell viability by CCK-8 and combination index, CCRF-CEM; type: cell-based; conditions: Homo sapiens, dexamethasone alone (original), read-out: concentration of dexamethasone at which 50% viability of CCRF-CEM cells (IC50 value) was inhibited
Method: as §4, §5, §6

Daudi cells = assay: Cell viability by CCK-8 and combination index, Daudi; type: cell-based, human; conditions: Homo sapiens, Daudi; dexamethasone alone (original); read-out: concentration of dexamethasone at which 50% viability of Daudi cells (IC50 value) was inhibited
Method: as §4
The inhibitory effect of two drugs (dexamethasone and an inhibitor) alone and in combination on various lymphocyte lines was observed by CCK-8 method (CCK-8 kit), and then the half-inhibitory concentration of each drug was calculated using the median effect equation, and the combination index (CI) of the two drugs used in combination was calculated using CompuSyn software.
(1) the lymphocytes of logarithmic growth phase were taken and made to a cell suspension of 5×10^4/mL, a blank control group (5 wells), a dexamethasone group (3 wells for each concentration, triplicates), a single inhibitor group (3 wells for each concentration, triplicates), a dexamethasone plus inhibitor group (3 wells for each combined concentration, triplicates) were prepared, 180 μL of the suspension was seeded to each well of a 96-well plate, and incubated for 24 hours in an incubator at 5% CO2 and 37° C.
Based on the drug resistance of cells, the ratio of two drugs was fixed. The dexamethasone group was cultured for 48 hours while the inhibitor group was cultured for 24 hours.
(3) 10 μl of CCK-8 was added to each well, and cultured for 2 hours, and the optical density (OD) was measured at 450 nm using an automatic microplate reader, and the proliferation inhibition rate of the drug on cell was calculated.
(4) the proliferation inhibition rate was calculated according to the following equation: cell proliferation inhibition rate=(1-average OD value in the test group/average OD value in the control group)×100%, and the effect of interaction between the two drugs was analyzed by Chou-Talalay combination index method.

[6] = Toxicity in tumor-bearing nude mice (peripheral blood test, organ pathology); conditions: compared to the NC group
Jurkat cells [7] = assay: Apoptosis by Annexin V-FITC PI double staining, Jurkat; type: cell-based, human; conditions: compared to the dexamethasone group; FIG. 5H
Method: as §3, §2, §4
The transfected cells were selected and passaged for 3 to 5 passages after resuscitation, with Interferin™ as transfection reagent, and the transfection procedure was performed in accordance with the instruction of the transfection reagent. In short, the cells of logarithmic growth phase were plated at 2×10^5/well, the cells were replaced with fresh complete medium (free of antibiotics) during transfection, siRNA was diluted with Opti-MEM and added with an appropriate amount of […]in™ and mixed, incubated at room temperature for 10 minutes prior to being added dropwise to the cells, and the cells were harvested at appropriate time. The cells were transfected with green fluorescein-labeled siRNA (FAM-siRNA) (siRNA at a final concentration of 20 μM, 1.25 μl/well), and the transfection efficiency was observed using a fluorescence microscope 24 hours later. The dexamethasone group was added 24 hours after transfection, followed by culture for further 24 hours, and then the cells were collected for observation; and the equal amount of anhydrous ethanol was added to the control group.

Molecule: C[C@H](NC(=O)Cc1cc(F)cc(F)c1)C(=O)N[C@H](C(=O)OC(C)(C)C)c1ccccc1 [dapt]
expression of phosphorylated FoxO3a, inhibitor plus dexamethasone [1]: significantly reduced | apoptosis of CCRF-CEM cells induced by dexamethasone, inhibitor plus dexamethasone (CCRF-CEM cells [2]): significantly increased

IC50 (Jurkat cells [3]): 224 µM | IC50 (CCRF-CEM cells [5]): 0.3 µM | IC50 (Daudi cells): 225 µM
Molecule: C[C@@H]1C[C@H]2[C@@H]3CCC4=CC(=O)C=C[C@]4(C)[C@@]3(F)[C@@H](O)C[C@]2(C)[C@@]1(O)C(=O)CO [dexamethasone]
damage to liver cells [4]: no damage to liver cells | IC50 (CEM-DR cells): 138 µM | peripheral blood leukocyte level ([6]; FIG. 6J): no significant difference | level of peripheral blood RBC ([6]; FIG. 6K): significantly increased | level of peripheral blood HGB ([6]; FIG. 6L): significantly increased | peripheral blood platelet level ([6]; FIG. 6M): no significant difference | blood glucose level ([6]; FIG. 6N): no significant difference | peripheral blood creatinine level ([6]; FIG. 6O): no significant difference

Molecule: Akt1 siRNA: siRNA, SEQ ID NO: 5 GGCCCAACACCUUCAUCAUTT and SEQ ID NO: 6 AUGAUGAAGGUGUUGGGCCTT (chain 1 GGCCCAACACCUUCAUCAUNN; chain 2 AUGAUGAAGGUGUUGGGCCNN; listed as RNA, chemistry not given here)
apoptosis of siRNA-transfected Jurkat cells induced by dexamethasone (Jurkat cells [7]): not increased

Molecule: Akt2 siRNA: siRNA, SEQ ID NO: 7 GGUUCUUCCUCAGCAUCAATT and SEQ ID NO: 8 UUGAUGCUGAGGAAGAACCTT (chain 1 GGUUCUUCCUCAGCAUCAANN; chain 2 UUGAUGCUGAGGAAGAACCNN; listed as RNA, chemistry not given here)
apoptosis of siRNA-transfected Jurkat cells induced by dexamethasone (Jurkat cells [7]): significantly increased
